Measurements reported in patent US20200010482A1, “INHIBITORS OF BETA SECRETASE” (Janssen Pharmaceutica NV, priority 2017, published 2020).

Key:
[1] = biological target: β-secretase I (BACE1) (Homo sapiens, UniProt P56817); assay: Biochemical assay, automated (CyclOps), BACE1; conditions: automated CyclOps bioassay; for IC50: read-out: AUTOMATED ASSAY BACE1 pIC50 (converted)
Description: (§1) Unless otherwise indicated all biochemicals were purchased from Sigma-Aldrich Chemical Company, Poole, Dorset, U.K. and non-aqueous solvents, of analytical or higher grade, were purchased from ThermoFisher Scientific, Loughborough, U.K. MilliQ water (Elix 5 & MilliQ Gradient; Merck Millipore) was used as the base aqueous solvent to make up the biological buffers. Base assay buffer was prepared by adding a 50 mM solution of citric acid (1.00244; Merck Biosciences) to stirring solution of 50 mM trisodium citrate (1.06448; Merck Biosciences) until a final pH of 5.0 was achieved. […] All assays were routinely carried out in 384-well assay plates (Costar 4514; Corning Life Sciences) and incubated at 37±1° C. for 60 min. prior to reading the endpoint fluorescence intensity. The (7-methoxyl coumarin-4-yl)acetic acid based substrate β-secretase substrate VI (M2465; Bachem) was prepared as a 1 mM stock in 100% DMSO (D/4121/PB08; ThermoFisher). Assay buffer was prepared by adding DMSO to base buffer to a final concentration of 1% (vol./vol.). β-secretase I (18.64 μM; “BACE1”) and β-secretase II (4.65 μM; “BACE2”) were obtained from Janssen Pharmaceutica, Beerse, Belgium and were stored as frozen aliquots (˜20 μl) and thawed as required.
(§2) Typically 12.5 μl of assay buffer was dispensed to rows B to P of the assay plate. To row A was added 18.75 μl of test compound diluted appropriately in assay buffer. A 6.25 μl aliquot of sample was transferred from row A to row B and the sample mixed three times by pipette. The process was repeated down the plate and 6.25 μl of solution discarded at row N post-mix. Rows O and P were designated as the positive and negative controls. To row P was added 6.25 μl base buffer. To rows A to O was added 6.25 μl enzyme (freshly prepared 40 nM BACE1 or 40 nM BACE2) diluted in base buffer. To initiate the assay 6.25 μl of freshly prepared 80 μM substrate, made up by diluting the 1 mM in 100% DMSO solution into HPLC grade water (Optima W6-212; ThermoFisher), was added to all the wells. The assay plate was covered and incubated at 37±1° C. for 60 min. The fluorescence intensity of the wells was read at 360/405 nm (excitation/emission) utilising a nine reads per well protocol (50 ms integration; density of 3, 0.25 mm spacing; SpectraMAX Paradigm plate reader; TUNE cartridge; SoftMax Pro v 6.3 software; Molecular Devices UK Ltd., Wokingham, Berkshire, UK) and outputting the median value of the nine reads as a text file. Data analysis was carried out using Prism software v 6.3 (GraphPad Inc., San Diego, Calif., USA) using the non-linear regression analysis models supplied by the vendor. For IC50 determinations the four parameter logistic variable slope model was used to fit the raw fluorescence intensity data with the ‘bottom’ fixed to the negative control.
(§3) The CyclOps bioassay module consisted of a fraction collection station, a reagent station, liquid handling robotics, plate store and an integrated plate reader (SpectraMAX Paradigm, TUNE cartridge, SoftMax Pro v 6.3; Molecular Devices). The fraction collection station composed of a 384 well collection plate (P-384-240SQ-C; Axygen, Union City, Calif., USA) mounted on a H-portal carriage (Festo AG & Co. KG, Esslingen, Germany), a syringe drive and a two-way six port injection valve fitted with a 200 μl loop (VICI AG International, Schenkon Switzerland). The output of the injection valve was addressable to all the positions of a 384 well collection plate. The reagent station consisted of hydraulically cooled (10-12° C.) aluminium segments; each manufactured to house a SBS microtiter plate footprint. Independent addressable reagent stations were housed within these sections. Where required, custom aluminium housings were used to accommodate standard laboratory plastic ware (e.g. Eppendorf tubes, Falcon tubes, etc.). As and when required the reagent reservoirs were covered and the lids contained holes through which the Teflon-coated probe could access solutions. […]

[2] = biological target: T1, β-secretase II (BACE2) (Homo sapiens, UniProt Q9Y5Z0); assay: Biochemical assay, automated (CyclOps), BACE2; conditions: automated CyclOps bioassay; for IC50: read-out: AUTOMATED ASSAY BACE2 pIC50 (converted)
T1 sequence (Q9Y5Z0 63-518): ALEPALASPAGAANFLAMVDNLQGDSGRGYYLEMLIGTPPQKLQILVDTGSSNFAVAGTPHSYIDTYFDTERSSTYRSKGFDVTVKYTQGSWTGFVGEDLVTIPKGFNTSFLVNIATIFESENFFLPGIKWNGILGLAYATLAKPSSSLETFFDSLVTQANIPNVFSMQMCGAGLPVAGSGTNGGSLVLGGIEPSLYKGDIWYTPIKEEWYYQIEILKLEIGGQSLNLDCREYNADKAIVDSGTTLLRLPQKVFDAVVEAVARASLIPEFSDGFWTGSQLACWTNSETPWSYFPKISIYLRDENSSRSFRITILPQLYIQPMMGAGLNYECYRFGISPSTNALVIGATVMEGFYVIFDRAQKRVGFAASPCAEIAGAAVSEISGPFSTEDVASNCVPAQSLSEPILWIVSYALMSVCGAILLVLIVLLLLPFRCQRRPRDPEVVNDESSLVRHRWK
Description: as §1, §2, §3

[3] = tested on: Abeta total produced and secreted by SKNBE2 cells expressing hAPP695; assay: Cellular αLisa assay in SKNBE2 cells, Abeta total; type: cell-based, human; conditions: SKNBE2 cells expressing hAPP695, 18 hours incubation
Description: In two αLisa assays the levels of Abeta total and Abeta 1-42 produced and secreted into the medium of human neuroblastoma SKNBE2 cells are quantified. The assay is based on the human neuroblastoma SKNBE2 expressing the wild type Amyloid Precursor Protein (hAPP695). The compounds are diluted and added to these cells, incubated for 18 hours and then measurements of Abeta 1-42 and Abeta total are taken. Abeta total and Abeta 1-42 are measured by sandwich αLisa. αLisa is a sandwich assay using biotinylated antibody AbN/25 attached to streptavidin coated beads and antibody Ab4G8 or cAb42/26 conjugated acceptor beads for the detection of Abeta total and Abeta 1-42 respectively. In the presence of Abeta total or Abeta 1-42, the beads come into close proximity. The excitation of the donor beads provokes the release of singlet oxygen molecules that trigger a cascade of energy transfer in the acceptor beads, resulting in light emission. Light emission is measured after 1 hour incubation (excitation at […] and emission at 615 nm).
A best-fit curve is fitted by a minimum sum of squares method to the plot of % Controlmin versus compound concentration. From this an IC50 value (inhibitory concentration causing 50% inhibition of activity) can be obtained. • LC=Median of the low control values=Low control: cells preincubated without compound, without biotinylated Ab in the αLisa • HC=Median of the High control values=High Control: cells preincubated without compound
% Effect=100−[(sample−LC)/(HC−LC)*100]
% Control=(sample/HC)*100
% Controlmin=(sample−LC)/(HC−LC)*100

Chain of β-secretase I (BACE1) (P56817 46-501): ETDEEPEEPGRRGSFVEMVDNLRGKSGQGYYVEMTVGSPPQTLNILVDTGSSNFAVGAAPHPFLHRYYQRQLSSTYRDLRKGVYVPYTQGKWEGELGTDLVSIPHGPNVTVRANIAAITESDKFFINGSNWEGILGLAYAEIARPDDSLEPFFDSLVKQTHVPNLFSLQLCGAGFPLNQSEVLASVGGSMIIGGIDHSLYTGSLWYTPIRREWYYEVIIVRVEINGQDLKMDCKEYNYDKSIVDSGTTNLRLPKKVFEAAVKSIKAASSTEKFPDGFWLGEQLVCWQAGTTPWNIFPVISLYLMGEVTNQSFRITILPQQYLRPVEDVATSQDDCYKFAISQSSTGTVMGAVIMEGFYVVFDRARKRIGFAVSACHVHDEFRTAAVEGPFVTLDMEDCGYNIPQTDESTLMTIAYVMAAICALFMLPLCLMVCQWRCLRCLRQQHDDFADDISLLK

In the case of `COc1cc(C)c(-c2cnc(OC)c3c2C[C@H]2CSC(N)=N[C@@]2(c2ccc(F)cc2F)C3)cn1` [Compound 106], the IC50 [1] is reported as 4.68 nM and the IC50 [2] is reported as 75.9 nM.
For `COc1ncc(-c2ccccc2)c2c1C[C@]1(c3ccc(F)cc3F)N=C(N)SC[C@@H]1C2` [Compound 49], the “AUTOMATED ASSAY BACE1 pIC50” value [1] was 8.6, the “AUTOMATED ASSAY BACE2 pIC50” value [2] was 9.02 and the “CELLULAR αLISA ASSAY IN SKNBE2 CELLS ABETA TOTAL pIC50” value [3] was 8.75.
In the case of `COc1ncc(-c2cc(Cl)ccc2C)c2c1C[C@]1(c3ccc(F)cc3F)N=C(N)SC[C@@H]1C2` [Compound 60], the “AUTOMATED ASSAY BACE1 pIC50” value [1] is reported as 7.65 and the “AUTOMATED ASSAY BACE2 pIC50” value [2] is reported as 6.73.
For `COc1ncc(C#N)c2c1C[C@]1(c3ccccc3F)N=C(N)SC[C@@H]1C2` (racemic) [Compound 22], the IC50 ([3]; Homo sapiens, SKNBE2, 18 h, read-out: CELLULAR αLISA ASSAY IN SKNBE2 CELLS ABETA TOTAL pIC50 (converted)) was 49 nM.
`COc1ncc(-c2ccccc2C)c2c1C[C@]1(c3ccc(F)cc3F)N=C(N)SC[C@@H]1C2` [Compound 55] was tested, and the “AUTOMATED ASSAY BACE1 pIC50” value [1] was 7.77 and the “AUTOMATED ASSAY BACE2 pIC50” value [2] was 7.3.
`COC/C=C/c1cnc(OC)c2c1C[C@H]1CSC(N)=N[C@@]1(c1ccc(F)cc1F)C2` [Compound 47] was tested, and the IC50 [1] was 9.77 nM and the IC50 [2] was 5.89 nM.
